Measured values from US20110236504A1, “VERSATILE DISINFECTANT” (priority 2008, published 2011).
Values joined by “and” are separate entries in the source; they are usually repeats but may differ in a detail not shown here. Equal values may be shown once. Read-outs that look alike come from different tables or passages of the source.

Key:
[1] = tested on: viable bacteria in sputum; assay: Sterilization effect on specimen: sputum; conditions: Sputum 2 × 10^9/g
[2] = tested on: pus mainly including antibiotic resistant Pseudomonas aeruginosa (MDRP); conditions: Pus (MDRP) 5 × 10^9/g
[3] = tested on: spores of Bacillus species; assay: Spore decay time and decay rate in dried soil, aerobic culture; format: cell-based; conditions: for Spore decay rate, Spores of Bacillus species: 1 g dried soil in 10 ml, aerobic culture
Procedure: (§1) Sands in a sandbox in a park and riverside soil were collected and mixed. The mixture was dried with heated air at 80 to 90° C. for 6 hours. Then, 1 g of the dried mixture was added into water and immediately filtered with a filter. A part of the filtrate was applied onto a glass slide, and spores were stained in a common procedure. The number of stained spores was counted and the number of spores contained in 1 g of soil was determined. Simultaneously, the spores were aerobically (Bacillus species proliferated) and anaerobically (Clostridium species proliferated) cultured, and each ratio was determined.
(§2) Then, into 10 ml of the sample disinfectant, 1 g of the dried soil was added. Some of the mixture was collected with time, and cultured aerobically and anaerobically. The number of growing colonies was counted to determine the decay rate of the spores.

[4] = tested on: intestinal bacteria in feces; assay: Sterilization effect on specimen: feces; conditions: for The number of viable bacteria in specimen: Feces 1.5 × 10^11/g
[5] = tested on: pus mainly including antibiotic resistant MRSA; conditions: Pus (MRSA) 4 × 10^9/g
[6] = tested on: viable bacteria on skin surface; assay: Application on hand skin, swab method; format: in vivo; conditions: for The number of viable bacteria on skin surface, relative value: before application = 100
Procedure: The disinfectant prepared in Preparation Example 3 was applied. Immediately after that, an area of 10 cm^2 was wiped with sterile gauze that was immersed into sterile physiological saline. Then, the number of bacteria was counted (Swab method). Next, different areas each having an area of 10 cm^2 were wiped in the applied area after 15 minutes, after 30 minutes, and after 60 minutes, and the viability of bacteria on the skin was determined. As controls, tap water and 70% ethanol were used. The number of bacteria before the application of disinfectants is regarded as 100 and relative values are shown.

[7] = tested on: spores of Clostridium species; assay: Spore decay time and decay rate in dried soil, anaerobic culture; format: cell-based; conditions: for Spore decay rate, Spores of Clostridium species: 1 g dried soil in 10 ml, anaerobic culture
Procedure: as §1, §2

[8] = tested on: E. coli O-157; assay: 100% death time on contact with solution
[9] = tested on: E. coli O-157; assay: Metal ion or food preservative added to growth medium, viable count; format: cell-based; conditions: metal ion in growth medium
Procedure: (§3) To a standard medium for counting viable bacteria described below, each metal ion with varied concentration was added. […] Then, the number of viable bacteria was counted with time in a common procedure.
(§4) Sample bacteria: S. aureus 209P as a representative of Gram-positive bacteria • E. coli 0-157 as a representative of Gram-negative bacteria
(§5) Standard medium for counting viable bacteria: yeast extract 2.5 g, peptone 5 g, glucose 1 g, agar 15 g, pH 7.2

[10] = tested on: S. aureus 209P; assay: as above; format: cell-based; conditions: metal ion in growth medium
Procedure: as §3, §4, §5

[11] = tested on: S. aureus 209P; assay: 100% death time on contact with solution; format: cell-based
Text: Examples of the effect are shown below.

[12] = tested on: viable bacteria in saliva; assay: Effect of gargle, viable bacteria in saliva; format: in vivo, persons; conditions: for number of viable bacteria in saliva, relative value: before gargle = 100, one value per person
Procedure: Next, the efficacy of the disinfectant was examined when it is used for a gargle. The number of viable bacteria was counted in 1 ml of saliva that was collected from each of three persons before a gargle. Then, each person gargled three times each for 20 seconds, that is, gargled for total of 1 minute, with the disinfectant of the present invention that was prepared in Preparation Example 6. Each saliva was collected immediately after the gargle and at 15 minutes, 30 minutes, and 60 minutes after the gargle. The number of viable bacteria was counted per 1 ml of the saliva, and the effect of gargle was determined. Here, the number of viable bacteria before gargle is regarded as 100, and relative values are shown.
As a control, each of two persons was gargled with tap water or 1000 ppm povidone-iodine in a similar way.

[13] = Cu^2+ 50 ppm + L-ascorbic acid 100 ppm
[14] = Cu^2+ 50 ppm + L-ascorbic acid 100 ppm + potassium sorbate 50 ppm
[15] = Cu^2+ 50 ppm + potassium sorbate 50 ppm
[16] = Cu^2+ 50 ppm + sodium lauryl sulfate 50 ppm
[17] = Cu^2+ 50 ppm + sodium lauryl sulfate 50 ppm + L-ascorbic acid 100 ppm
[18] = Cu^2+ 50 ppm + sodium lauryl sulfate 50 ppm + L-ascorbic acid 100 ppm + potassium sorbate 50 ppm

In the case of CCO [70% Ethanol, ethanol], the “The number of viable bacteria in specimen” value (shortened to “The number … in specimen”) ([1]; 5 min after addition) is reported as 1e+08 g⁻¹, the “The number … in specimen” value ([1]; 15 min after addition) is reported as 2e+07 g⁻¹ and the “The number … in specimen” value ([1]; 30 min after addition) is reported as 6e+06 g⁻¹. The “The number … in specimen” value ([1]; 60 min after addition) was 5e+06 g⁻¹, the “The number … in specimen” value ([1]; 60 min after addition, listed as 70% ethanol) was 5e+06 g⁻¹ and the “The number … in specimen” value ([2]; 5 min after addition) was 7e+07 g⁻¹. For the same compound, the “The number … in specimen” value ([2]; 15 min after addition) was 500000 g⁻¹, the “The number … in specimen” value ([2]; 30 min after addition) was 10000 g⁻¹ and the “The number … in specimen” value ([2]; 60 min after addition) was 10000 g⁻¹. For the same compound, the “effect on the spores” value [3] was “no effect”, the “Spore decay rate, Spores of Bacillus species” value ([3]; 1 min contact) was 0% and the “Spore decay rate, Spores of Bacillus species” value ([3]; 5 min contact) was 0%. For the same compound, the “Spore decay rate, Spores of Bacillus species” value ([3]; 10 min contact) was 0%, the “Spore decay rate, Spores of Bacillus species” value ([3]; 30 min contact) was 0% and the “Spore decay rate, Spores of Bacillus species” value ([3]; 60 min contact) was 0%. The “Spore decay rate, Spores of Bacillus species” value ([3]; 120 min contact) was 0%, the “The number … in specimen” value ([4]; 5 min after addition) was 5e+06 g⁻¹ and the “The number … in specimen” value ([4]; 15 min after addition) was 3000 g⁻¹. For the same compound, the “The number … in specimen” value ([4]; 30 min after addition) was 4e+10 g⁻¹, the “The number … in specimen” value ([4]; 60 min after addition) was 4e+16 g⁻¹ and the “effect on bacteria in feces” value ([4]; feces) was “only slightly decreased”. The “The number … in specimen” value ([5]; 5 min after addition) was 5e+07 g⁻¹, the “The number … in specimen” value ([5]; 15 min after addition) was 200000 g⁻¹ and the “The number … in specimen” value ([5]; 30 min after addition) was 80000 g⁻¹. The “The number … in specimen” value ([5]; 60 min after addition) was 50000 g⁻¹, the “number of bacteria on skin relative to before application” value ([6]; after 60 minutes) was 45% and the “The number of viable bacteria on skin surface, relative value” (“The number … relative value” below) ([6]; after 15 min) was 12. The “The number … relative value” ([6]; after 30 min) was 20, the “The number … relative value” ([6]; after 60 min) was 45 and the “The number … relative value” ([6]; immediately after) was 0. For the same compound, the “The number … relative value” ([6]; immediately after, listed as 70% ethanol) was “no bacteria was observed”, the “effect on the spores” value [7] was “no effect” and the “Spore decay rate, Spores of Clostridium species” value ([7]; 1 min contact) was 0%. For the same compound, the “Spore decay rate, Spores of Clostridium species” value ([7]; 5 min contact) was 0%, the “Spore decay rate, Spores of Clostridium species” value ([7]; 10 min contact) was 0% and the “Spore decay rate, Spores of Clostridium species” value ([7]; 30 min contact) was 0%. The “Spore decay rate, Spores of Clostridium species” value ([7]; 60 min contact) was 0% and the “Spore decay rate, Spores of Clostridium species” value ([7]; 120 min contact) was 0%.

O.O.O.O.O.O=S(=O)([O-])[O-].[Cu+2] [Cu^2+, CuSO4•5H2O] was tested, and the 100% death time [8, 13] was 60 min, the 100% death time [8, 14] was 45 min and the 100% death time [8, 15] was 70 min. The 100% death time [8, 16] was 1 min, the 100% death time [8, 17] was 1 min and the 100% death time [8, 18] was 0.5 min. For the same compound, the 100% death time ([8]; Cu^2+ ion 50 ppm alone) was 90 min, the “(a) Antiproliferative activity, concentration” value [9] was 5~30 ppm and the “(b) Bacteriostatic activity, concentration” value [9] was 25~120 ppm. The “(c) Bactericidal activity, concentration” value [9] was 100 ppm>, the “Acceleration of growth, concentration” value [9] was 5 ppm< and the “(a) Antiproliferative activity, concentration” value [10] was 10~50 ppm. For the same compound, the “(b) Bacteriostatic activity, concentration” value [10] was 40~150 ppm, the “Acceleration of growth, concentration” value [10] was 5 ppm< and the 100% death time [11, 13] was 60 min. The 100% death time [11, 14] was 50 min, the 100% death time [11, 15] was 75 min and the 100% death time [11, 16] was 1.5 min. For the same compound, the 100% death time [11, 17] was 1 min, the 100% death time [11, 18] was 0.75 min and the 100% death time ([11]; Cu^2+ ion 50 ppm alone) was 90 min.

With OCl [Sodium hypochlorite, sodium hypochlorite] the “The number … in specimen” value ([1]; 5 min after addition) was 20000 g⁻¹, the “The number … in specimen” value ([1]; 15 min after addition) was 10000 g⁻¹ and the “The number … in specimen” value ([1]; 30 min after addition) was 10000 g⁻¹. For the same compound, the “The number … in specimen” value ([1]; 60 min after addition) was 5000 g⁻¹, the “The number … in specimen” value ([1]; 60 min after addition, listed as sodium hypochlorite) was 5000 g⁻¹ and the “The number … in specimen” value ([2]; 5 min after addition) was 2000 g⁻¹. For the same compound, the “The number … in specimen” value ([2]; 15 min after addition) was 1000 g⁻¹, the “The number … in specimen” value ([2]; 30 min after addition) was 200 g⁻¹ and the “The number … in specimen” value ([2]; 60 min after addition) was 100 g⁻¹. For the same compound, the “Spore decay rate, Spores of Bacillus species” value ([3]; 1 min contact) was 0%, the “Spore decay rate, Spores of Bacillus species” value ([3]; 5 min contact) was 0% and the “Spore decay rate, Spores of Bacillus species” value ([3]; 10 min contact) was 10%. The “Spore decay rate, Spores of Bacillus species” value ([3]; 30 min contact) was 30%, the “Spore decay rate, Spores of Bacillus species” value ([3]; 60 min contact) was 100% and the spores decayed ([3]; 60 minutes contact) was 100%. For the same compound, the “Spore decay rate, Spores of Bacillus species” value ([3]; 120 min contact) was 100%, the “The number … in specimen” value ([4]; 5 min after addition) was 1e+08 g⁻¹ and the “The number … in specimen” value ([4]; 15 min after addition) was 8e+06 g⁻¹. The “The number … in specimen” value ([4]; 30 min after addition) was 8e+06 g⁻¹, the “The number … in specimen” value ([4]; 60 min after addition) was 1e+07 g⁻¹ and the “The number … in specimen” value ([4]; 60 min after addition, listed as hypochlorite) was 1e+07 g⁻¹. The “The number … in specimen” value ([5]; 5 min after addition) was 30000 g⁻¹, the “The number … in specimen” value ([5]; 15 min after addition) was 500 g⁻¹ and the “The number … in specimen” value ([5]; 30 min after addition) was 100 g⁻¹. For the same compound, the “The number … in specimen” value ([5]; 60 min after addition) was 0 g⁻¹, the “Spore decay rate, Spores of Clostridium species” value ([7]; 1 min contact) was 0% and the “Spore decay rate, Spores of Clostridium species” value ([7]; 5 min contact) was 5%. The “Spore decay rate, Spores of Clostridium species” value ([7]; 10 min contact) was 20%, the “Spore decay rate, Spores of Clostridium species” value ([7]; 30 min contact) was 30% and the “Spore decay rate, Spores of Clostridium species” value ([7]; 60 min contact) was 100%. The spores decayed ([7]; 60 minutes contact) was 100% and the “Spore decay rate, Spores of Clostridium species” value ([7]; 120 min contact) was 100%.

povidone-iodine was tested, and the “number of bacteria in saliva relative to before gargle” value ([12]; after 60 minutes) was 30 to 40%, the “number of viable bacteria in saliva, relative value” (“number … in saliva, relative value” for short) ([12]; after 15 min) was 5 and 8 and the “number … in saliva, relative value” ([12]; after 30 min) was 18 and 20. For the same compound, the “number … in saliva, relative value” ([12]; after 60 min) was 30 and 40, the “number … in saliva, relative value” ([12]; immediately after gargle) was 2 and the “number of bacteria in saliva relative to before gargle” value ([12]; immediately after the gargle) was 2%.
